{"source": "paper PMC10217546", "about": "“Antioxidant Activities of Dihydromyricetin Derivatives with Different Acyl Donor Chain Lengths Synthetized by Lipozyme TL IM” (Foods, 2023)", "key": {"[1]": {"assay": "ABTS radical scavenging ability", "settings": "ABTS radical scavenging test, 30 °C, 6 min, 734 nm", "protocol": "The ability of DHM and its acylated derivatives to scavenge ABTS radicals was evaluated using a previous method with some modification. Samples (0.1 mL, 0.01, 0.02, 0.04, 0.06, and 0.08 mg/mL) were added to 3.9 mL of ABTS solution and measured at 734 nm after incubation at 30 °C for 6 min. Vc (a water-soluble antioxidant) and TBHQ (a lipid soluble antioxidant) were used as controls. (3) ABTS radical scavenging activity (%) =(1−A1 - A2/A0) × 100 where A0, A1, and A2 represent the absorbance values of the ABTS-ethanol, ABTS-samples, and samples-ethanol mixtures, respectively."}, "[2]": {"assay": "Partition coefficient of lipids and water (log P), n-octanol/water by HPLC", "format": "physicochemical", "protocol": "The lipophilicity of DHM and its derivatives was evaluated using log P, which was determined by a previous method with several modifications. Two milligrams of sample were dissolved in n-octanol solution (4 mL) saturated by water and analyzed using HPLC at 298 nm (A0). The n-octanol solution (1 mL) saturated by water containing the sample was mixed with water solution (1 mL) saturated by n-octanoland and then shaken using a constant-temperature water bath oscillator (Tianjin, China) at 30 °C for 24 h at 150 rpm. The ultraviolet absorbance of the upper solution was analyzed at 298 nm (Ax). The calculation equation of log P is as follows:(1) log P=log Ax / (A0 − Ax)"}, "L-02 cells": {"tested_on": "L-02 cells", "assay": "Cellular antioxidant activity (CAA) assay in L-02 cells", "format": "cell-based, Human", "protocol": "Human normal hepatocytes (L-02 cells, passage number 4) were purchased from Cell Bank of Shanghai Institutes for Biological Sciences, Chinese Academy of Sciences (Shanghai, China) and cultured in RPMI 1640 medium (Invitrogen, Carlsbad, CA, USA) supplemented with 10% FBS and 1% penicillin-streptomycin double antibody and were cultured at 37 °C in 5% CO2.\nThe CAA assay was made using the method of Wolfe and Liu with modifications. L-02 cells were inoculated in black 96-well plates (6 × 10^4 /well, 100 μL) and incubated for 24 h. After removing culture medium, and the cells were washed with PBS and treated with the samples and DCFH-DA (25 μmol/L) for 1 h. Then, the cells were divided into two groups. One group was washed with PBS, and ABAP (600 μmol/L, 100 μL) was added to each well. Another group was only treated with adding 100 μL of ABAP (600 μmol/L) without washing. The black 96-well plates were measured by a Thermo Scientific Fluoroskan Ascent FL (Thermo Fisher Scientific, Waltham, MA, USA) every 5 min for 1 h at an emission wavelength of 538 nm and an excitation wavelength of 485 nm. Three control wells and one blank well were set. The control well was made up of the cells treated with ABAP but without samples, and the blank well was made up of the cells treated without ABAP and samples. Quercetin was used as the positive control. (6) CAA unit=1 - ∫SA/∫CA × 100 where ∫SA represents the area integral under the sample fluorescence value versus time curve and ∫CA represents the area integral under the control fluorescence value versus time curve."}, "[3]": {"assay": "DPPH radical scavenging ability", "settings": "for IC50 DPPH: DPPH radical scavenging test; for scavenging rate of DPPH free radicals: sample concentration 20 μg/mL, 30 min in the dark, 517 nm", "protocol": "The method used to determine the abilities of DHM and its acylated derivatives was a previous method with some modifications. Two milliliters of DPPH (0.065 mg/mL) and 2 mL of the sample (3, 5, 10, 15, and 20 μg/mL) were added to a centrifuge tube and described at 517 nm after 30 min of reaction in a dark environment. Vc (a water-soluble antioxidant) and TBHQ (a lipid soluble antioxidant) were used as controls. (2) DPPH radical scavenging activity (%) =(1−A1 - A2/A0) × 100 where A0, A1, and A2 represent the absorbance values of the DPPH-ethanol, DPPH-sample, and sample-ethanol mixtures, respectively."}, "[4]": {"settings": "n-octanol/water, shaken at 30 °C for 24 h, HPLC at 298 nm"}, "[5]": {"settings": "PBS wash between antioxidant and ABAP treatments, read-out: EC50 CAA Unit Wash"}, "[6]": {"settings": "no PBS wash between antioxidant and ABAP treatments, read-out: EC50 CAA Unit No Wash"}, "[7]": {"settings": "Homo sapiens, L02, PBS wash between antioxidant and ABAP treatments, read-out: EC50 CAA Unit Wash"}, "[8]": {"settings": "Homo sapiens, L02, no PBS wash between antioxidant and ABAP treatments, read-out: EC50 CAA Unit No Wash"}}, "note": "Like-named read-outs stand apart in the source and are kept apart here. Marks after values point to notes of the source that are not given here."}
{"smiles": "CC(=O)OC1C(=O)c2c(O)cc(O)cc2OC1c1cc(O)c(O)c(O)c1", "note": "(stereo not drawn) [C2-DHM, 3-O-acetyl-DHM]", "values": [{"measurement": "IC50 ABTS", "setting": "[1]", "result": "58.29 ± 2.20 ^a μg/mL"}, {"measurement": "log P", "setting": "[2]; [4]", "result": 1.32}, {"measurement": "EC50", "setting": "L-02 cells; [5]", "result": "172 ± 8.84", "unit": "µM"}, {"measurement": "EC50", "setting": "L-02 cells; [6]", "result": "77.8 ± 3.81", "unit": "µM"}, {"measurement": "IC50 DPPH", "setting": "[3]", "result": "9.07 ± 0.10 ^bc μg/mL"}, {"measurement": "scavenging rate of DPPH free radicals", "setting": "[3]", "result": "92.58 ± 1.33", "unit": "%"}]}
{"smiles": "CCCC(=O)OC1C(=O)c2c(O)cc(O)cc2OC1c1cc(O)c(O)c(O)c1", "note": "(stereo not drawn) [C4-DHM, 3-O-butyryl-DHM]", "values": [{"measurement": "IC50 ABTS", "setting": "[1]", "result": "56.30 ± 1.03 ^a μg/mL"}, {"measurement": "log P", "setting": "[2]", "result": 1.50}, {"measurement": "EC50", "setting": "L-02 cells; [5]", "result": "60.7 ± 0.64", "unit": "µM"}, {"measurement": "EC50", "setting": "L-02 cells; [6]", "result": "60.8 ± 6.23", "unit": "µM"}, {"measurement": "IC50 DPPH", "setting": "[3]", "result": "9.08 ± 0.25 ^bc μg/mL"}, {"measurement": "scavenging rate of DPPH free radicals", "setting": "[3]", "result": "92.70 ± 0.79", "unit": "%"}]}
{"smiles": "CCCCCC(=O)OC1C(=O)c2c(O)cc(O)cc2OC1c1cc(O)c(O)c(O)c1", "note": "(stereo not drawn) [C6-DHM, 3-O-hexanoyl-DHM]", "values": [{"measurement": "IC50 ABTS", "setting": "[1]", "result": "77.22 ± 1.46 ^a μg/mL"}, {"measurement": "log P", "setting": "[2]; [4]", "result": 1.67}, {"measurement": "EC50", "setting": "L-02 cells; [5]", "result": "52.9 ± 2.69", "unit": "µM"}, {"measurement": "EC50", "setting": "L-02 cells; [6]", "result": "65.2 ± 3", "unit": "µM"}, {"measurement": "IC50 DPPH", "setting": "[3]", "result": "11.17 ± 0.04 ^bc μg/mL"}, {"measurement": "scavenging rate of DPPH free radicals", "setting": "[3]", "result": "82.53 ± 1.98", "unit": "%"}]}
{"smiles": "CCCCCCCC(=O)OC1C(=O)c2c(O)cc(O)cc2OC1c1cc(O)c(O)c(O)c1", "note": "(stereo not drawn) [C8-DHM, 3-O-octanoyl-DHM]", "values": [{"measurement": "IC50 ABTS", "setting": "[1]", "result": "80.15 ± 0.42 ^a μg/mL"}, {"measurement": "log P", "setting": "[2]", "result": 1.73}, {"measurement": "EC50", "setting": "L-02 cells; [5]", "result": "35.14 ± 0.29", "unit": "µM"}, {"measurement": "EC50", "setting": "L-02 cells; [6]", "result": "45.4 ± 0.74", "unit": "µM"}, {"measurement": "IC50 DPPH", "setting": "[3]", "result": "12.69 ± 0.09 ^c μg/mL"}, {"measurement": "scavenging rate of DPPH free radicals", "setting": "[3]", "result": "74.14 ± 0.40", "unit": "%"}]}
{"smiles": "CCCCCCCCCCCC(=O)OC1C(=O)c2c(O)cc(O)cc2OC1c1cc(O)c(O)c(O)c1", "note": "(stereo not drawn) [C12-DHM, 3-O-lauroyl-DHM]", "values": [{"measurement": "IC50 ABTS", "setting": "[1]", "result": "360.69 ± 50.13 ^b μg/mL"}, {"measurement": "log P", "setting": "[2]", "result": 1.80}, {"measurement": "EC50", "setting": "L-02 cells; [5]", "result": "122 ± 9.48", "unit": "µM"}, {"measurement": "EC50", "setting": "L-02 cells; [6]", "result": "234 ± 9.69", "unit": "µM"}, {"measurement": "IC50 DPPH", "setting": "[3]", "result": "35.93 ± 5.63 ^d μg/mL"}, {"measurement": "scavenging rate of DPPH free radicals", "setting": "[3]", "result": "29.62 ± 4.88", "unit": "%"}]}
{"smiles": "O=C1c2c(O)cc(O)cc2O[C@H](c2cc(O)c(O)c(O)c2)[C@H]1O", "note": "[DHM, Dihydromyricetin]", "values": [{"measurement": "IC50 ABTS", "setting": "[1]", "result": "46.51 ± 2.19 ^a μg/mL"}, {"measurement": "logP at 24 h", "setting": "[2]; [4]", "result": 0.81}, {"measurement": "EC50", "setting": "L-02 cells; [7]", "result": "226 ± 4.67", "unit": "µM"}, {"measurement": "EC50", "setting": "L-02 cells; [8]", "result": "90.2 ± 5.02", "unit": "µM"}, {"measurement": "IC50 DPPH", "setting": "[3]", "result": "9.04 ± 0.09 ^bc μg/mL"}, {"measurement": "scavenging rate of DPPH free radicals", "setting": "[3]", "result": "93.37 ± 1.83", "unit": "%"}]}
{"smiles": "O=c1c(O)c(-c2ccc(O)c(O)c2)oc2cc(O)cc(O)c12", "note": "[Quercetin, reference compound]", "values": [{"measurement": "EC50", "setting": "L-02 cells; [7]", "result": "29 ± 0.36", "unit": "µM"}, {"measurement": "EC50", "setting": "L-02 cells; [8]", "result": "33.9 ± 3.67", "unit": "µM"}]}
{"smiles": "CC(C)(C)c1cc(O)ccc1O", "note": "[TBHQ, tert-butylhydroquinone, reference compound]", "values": [{"measurement": "IC50 ABTS", "setting": "[1]", "result": "79.34 ± 3.37 ^a μg/mL"}, {"measurement": "IC50 DPPH", "setting": "[3]", "result": "7.55 ± 0.18 ^ab μg/mL"}]}
{"smiles": "O=C1O[C@H]([C@@H](O)CO)C(O)=C1O", "note": "[Vc, L-ascorbic acid, reference compound]", "values": [{"measurement": "IC50 ABTS", "setting": "[1]", "result": "61.02 ± 2.15 ^a μg/mL"}, {"measurement": "IC50 DPPH", "setting": "[3]", "result": "4.23 ± 1.38 ^a μg/mL"}]}
